Assay results taken from publication PMC6337588, “Multi-Target Cinnamic Acids for Oxidative Stress and Inflammation: Design, Synthesis, Biological Evaluation and Modeling Studies” (Molecules, 2018).

What was measured:
[1] = Reducing activity of the stable radical DPPH; type: biochemical
Description: The substituted acids were monitored for the antioxidant activity by the use of the stable 2,2-diphenyl-1-picrylhydrazyl radical (DPPH) at concentration 50 µM and 100 µM after 20 and 60 min (Table 1). In this assay the DPPH radical is reduced by single electron transfer from the antioxidant. Strong antioxidants are the phenoxide anions from phenolic compounds like catechol and derivatives, such as nordihydroguaretic acid (NDGA), the reference compound. The compounds presented medium reducing abilities from 29–61%, due to steric reasons; small differences were found among the compounds with time and concentration. 4-Br-substituted-3 phenyl acetic acid derivatives (Series I) are equipotent to 4-OH-substituted-3 phenyl acetic acid derivatives (Series II). No differences were observed between 4i and 5i and 4ii and 5ii.
To a solution of DPPH in absolute ethanol an equal volume of the compounds dissolved in DMSO was added. The final concentrations of the measured solutions of the novel acids were 50 and 100 µM starting from a stock solution (10 mM) in DMSO. The absorbance was recorded at 517 nm, after 20 and 60 min at room temperature (Table 1).

[2] = molecular target: T1, soybean lipoxygenase (Glycine max, UniProt P08170); assay: Soybean lipoxygenase inhibition in vitro; type: biochemical; conditions: for IC50: sodium linoleate 0.1 mM, 234 nm, read-out: LOX IC50
T1 construct: purchased Sigma Chemical, Co. (St. Louis)
T1 sequence (P08170 1-839): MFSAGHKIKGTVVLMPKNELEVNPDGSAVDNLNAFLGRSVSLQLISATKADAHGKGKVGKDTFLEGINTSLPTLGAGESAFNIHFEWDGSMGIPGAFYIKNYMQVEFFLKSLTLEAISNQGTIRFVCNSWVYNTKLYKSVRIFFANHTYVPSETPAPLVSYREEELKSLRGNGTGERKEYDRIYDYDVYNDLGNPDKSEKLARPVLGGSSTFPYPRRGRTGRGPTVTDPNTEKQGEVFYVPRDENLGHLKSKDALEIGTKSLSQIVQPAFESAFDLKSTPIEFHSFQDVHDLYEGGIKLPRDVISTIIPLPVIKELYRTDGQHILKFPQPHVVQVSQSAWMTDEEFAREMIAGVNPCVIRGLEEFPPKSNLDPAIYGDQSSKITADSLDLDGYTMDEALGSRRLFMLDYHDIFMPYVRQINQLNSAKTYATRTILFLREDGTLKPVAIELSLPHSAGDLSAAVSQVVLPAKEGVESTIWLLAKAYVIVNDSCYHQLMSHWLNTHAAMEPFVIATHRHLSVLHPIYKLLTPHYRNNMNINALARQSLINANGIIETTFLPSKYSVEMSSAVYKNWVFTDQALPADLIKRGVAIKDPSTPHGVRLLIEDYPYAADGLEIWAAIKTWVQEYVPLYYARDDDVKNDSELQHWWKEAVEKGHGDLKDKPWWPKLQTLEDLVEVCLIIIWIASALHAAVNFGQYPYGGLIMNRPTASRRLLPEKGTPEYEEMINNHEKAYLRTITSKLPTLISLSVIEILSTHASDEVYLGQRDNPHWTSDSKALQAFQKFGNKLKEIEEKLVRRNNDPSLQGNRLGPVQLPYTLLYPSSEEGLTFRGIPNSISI
Description: Many research groups have used readily obtainable soybean lipoxygenase, which is a homologue of mammalian lipoxygenase and well studied. Due to its availability and its well-characterised crystal structure, soybean LOX was selected to be used in this study.
In vitro study was evaluated as reported previously by our group. The tested compounds were incubated at room temperature with sodium linoleate (0.1 mM) and 0.2 mL of enzyme solution (1/9 × 104 w/v in saline). The method was based to the conversion of sodium linoleate to 13-hydroperoxylinoleic acid at 234 nm. […] In order to determine the IC50 values different concentrations were used.

[3] = Non enzymatic assay of superoxide radical scavenging activity (PMS/NADH/NBT); type: biochemical
Description: Superoxide radical is a main cause of oxidative stress, expressing its biological toxicity by the inactivation of iron-sulfur cluster containing enzymes. The superoxide anion radical (O2^−^•) is less toxic than the hydroxyl radical, but still being one of the most known toxic reactive oxygen species (ROS). In this assay the superoxide anion radicals were generated by a non-enzymatically assay and the compounds are tested at 100 μM final concentration (Table 2). Caffeic acid (CA) has been used as a reference compound. Compound 4ii presented the highest activity, followed by compound 3ii. We succeeded to derive a quantitative-structure activity relationship model for this activity in which the topological polar surface (TPAS) of the compounds seem to govern the superoxide anion scavenging activity:% Superoxide Anion Scavenging Activity (100 µM) = 0.019 (±0.007) TPSA + 0.813 (±0.358) n = 6, r = 0.962, r^2 = 0.926, q^2 = 0.694, s = 0.122, Q = 7.885, F1,6 = 3.701, α = 0.1 clog P vs. TPSA 0.
The superoxide radicals are generated by mixing N-methylphenazonium methyl sulfate (PMS), NADH and air–oxygen and determined by the nitroblue tetrazolium method and measured at 560 nm (Table 2). Caffeic acid was used as reference compound [17, 18, 28].

[4] = Inhibition of linoleic acid peroxidation (AAPH); type: biochemical; conditions: anti-lipid peroxidation
Description: We also used water-soluble 2,2′-[…](2-amidinopropane) hydrochloride (AAPH) for the generation of free radicals. AAPH has been extensively used as a clean and controllable source of thermally produced alkylperoxyl free radicals. The peroxyl radicals produced by the action of AAPH show total similarity to cellular activities such as lipid peroxidation. […] It seems that the presence of 3,5-di-tert-butyl-group greatly enhances protection against lipid peroxidation (6i/ii and 7i/ii followed by 3ii and 5ii). The lipid peroxidation inhibitory activity seems to be concentration dependent.
2,2’-Azobis(2-amidinopropane) dihydrochloride (AAPH) was used as a free radical initiator to start the oxidation reaction. The method was based on the production of conjugated diene hydroperoxide by oxidation of linoleic acid at 234 nm expressed as an increased absorption. Trolox was used as reference compound (93%) (Table 2).

[5] = ABTS+• decolorization assay; type: biochemical; conditions: 1 min, 734 nm
Description: No role for lipophilicity was found. Oxidation of ABTS with potassium persulfate generates directly the ABTS radical cation (ABTS^+•) with no involvement of an intermediary radical, which is then reduced upon adding electron-donating antioxidants.
In order to produce the ABTS radical cation (ABTS^+•), ABTS stock solution in water (7 mM) was mixed with potassium persulfate (2.45 mM) and left in the dark at room temperature for 12–16 h before use. Our published experimental technique was used (Table 2). The results are recorded after 1 min of the mixing solutions at 734 nm. The results were compared to the appropriate standard inhibitor Trolox.

[6] = Experimental lipophilicity as RM values by reversed phase TLC (RPTLC); type: physicochemical; conditions: methanol/water 77/23 with 0.1% acetic acid, 24 °C, average of at least 5 measurements
Description: Lipophilicity is a physicochemical property correlated with the biological activity. Lipophilicity influences ligand-target binding interactions, solubility, absorption, distribution, bioavailability, metabolism and elimination (ADME) and toxicological outcomes. The lipophilicity of the novel cinnamic acids was experimentally measured as RM values using a reverse phase thin layer chromatography (RPTLC) method. This is acknowledged as a reliable, fast and convenient approach for expressing lipophilicity (Table 1). RM relates to the thermodynamic Rf value in a logarithmic form. Bate-Smith and Westall firstly determined lipophilicity as RM values in 1950 [31]. The Br-substituted derivatives 1i–7i are more lipophilic than the OH-substituted ones 1ii–7ii which can be easily explained by their structural characteristics.
Reversed phase TLC (RPTLC) was performed on silica gel plates impregnated with 55% (v/v) liquid paraffin in light petroleum ether. The mobile phase was a methanol/water mixture (77/23, v/v) containing 0.1% of acetic acid. The plates were developed in closed chromatography tanks saturated with the mobile phase at 24 °C. Spots were detected under UV light. RM values were determined from the corresponding Rf values (from five individual measurements) using the equation RM = log[(1/Rf) − 1] [17, 18, 28].

[7] = Competition with DMSO for hydroxyl radicals (Fe3+/ascorbic acid system); type: biochemical; conditions: hydroxyl radical scavenging
Description: Competition of the novel substituted acids with DMSO for hydroxyl radicals was measured. Hydroxyl radicals were generated using the Fe^3+/ascorbic acid system and expressed as a percentage inhibition of formaldehyde production in the presence of each compound at 100 μM (Table 2). All the synthesized derivatives strongly scavenge hydroxyl radicals at 100 μM in comparison to the reference compound Trolox.
The hydroxyl radicals generated by the Fe^3+/ascorbic acid system, were detected by the determination of formaldehyde produced from the oxidation of DMSO (Table 2). Trolox was used as reference compound [17, 18, 28].

| LOX % Inhibition 100 µM ([2]; 100 µM) [%] | inhibition at 100 µM ([2]; 100 µM, read-out: LOX % Inhibition 100 µM) [%] | melting point [°C] | RM (±SD) [6] | IC50 [2] [µM] | SMILES | RA% 50 µM 20 min [1] [%] | RA% 50 µM 60 min [1] [%] | RA% 100 µM 20 min [1] [%] | RA% 100 µM 60 min [1] [%] | O2−•% 100 µM [3] [%] | AAPH% 50 µM [4] [%] | AAPH% 100 µM [4] [%] | ABTS+•% 100 µM [5] [%] | HO•% 100 µM [7] [%] |
| --- | --- | --- | --- | --- | --- | --- | --- | --- | --- | --- | --- | --- | --- | --- |
| 28 | 27.9 | 211 to 212 | 0.423 (0.017) |  | O=C(O)C(=CC(Br)=Cc1ccccc1)c1ccc(Br)cc1 [Compound 4i, 4-Bromo-2-(4-bromophenyl)-5-phenylpenta-2,4-dienoic acid] | 30 | 30 | 38 | 36 | 46 | 52 | 85 | 24 | 83 |
|  |  | 155 to 157 | 0.011 (0.001) | 69 | O=C(O)C(=CC(Br)=Cc1ccccc1)c1ccc(O)cc1 [Compound 4ii, 4-Bromo-2-(4-hydroxyphenyl)-5-phenylpenta-2,4-dienoic acid] | 34 | 46 | 35 | 37 | 100 | 59 | 97 | 24 | 96 |
|  |  | 90 to 91 | −0.565 (0.003) | 81.5 | CC(=Cc1ccccc1)C=C(C(=O)O)c1ccc(O)cc1 [Compound 5ii, 2-(4-Hydroxyphenyl)-4-methyl-5-phenylpenta-2,4-dienoic acid] | 32 | 39 | 30 | 41 | 8 | 53 | 93 | 35 | 89 |

The next lines start with the molecule.

| SMILES | LOX % Inhibition 100 µM ([2]; 100 µM) [%] | inhibition at 100 µM ([2]; 100 µM, read-out: LOX % Inhibition 100 µM) [%] | melting point [°C] | RM (±SD) [6] | IC50 [2] [µM] | RA% 50 µM 20 min [1] [%] | RA% 50 µM 60 min [1] [%] | RA% 100 µM 20 min [1] [%] | RA% 100 µM 60 min [1] [%] | O2−•% 100 µM [3] [%] | AAPH% 50 µM [4] [%] | AAPH% 100 µM [4] [%] | ABTS+•% 100 µM [5] [%] | HO•% 100 µM [7] [%] |
| --- | --- | --- | --- | --- | --- | --- | --- | --- | --- | --- | --- | --- | --- | --- |
| CC(C)(C)c1cc(C=C(C(=O)O)c2ccc(Br)cc2)cc(C(C)(C)C)c1O [Compound 7i, 2-(4-Bromophenyl)-3-(3,5-di-tert-butyl-4-hydroxyphenyl)acrylic acid] |  |  | 137 to 138 | 1.151 (0.021) | 72.5 | 34 | 35 | 30 | 31 | 54 | 61 | 100 | 28 | 87 |
| CC(C)(C)c1cc(C=C(C(=O)O)c2ccc(O)cc2)cc(C(C)(C)C)c1O [Compound 7ii, 3-(3,5-di-tert-Butyl-4-hydroxyphenyl)-2-(4-hydroxyphenyl)acrylic acid] |  |  | 139 to 140 | 0.654 (0.016) | 57.5 | 33 | 35 | 33 | 34 | 69 | 69 | 100 | 34 | 72 |
| CN(C)c1ccc(C=CC=C(C(=O)O)c2ccc(O)cc2)cc1 [Compound 3ii, 5-(4-(Dimethylamino)phenyl)-2-(4-hydroxyphenyl)penta-2,4-dienoic acid] |  |  | 204 to 205 | −0.642 (0.032) | 89 | 43 | 35 | 44 | 46 | 85 | 71 | 95 | 63 | 99 |
| O=C(O)C(=Cc1cccc(Oc2ccccc2)c1)c1ccc(Br)cc1 [Compound 1i, 2-(4-Bromophenyl)-3-(3-phenoxyphenyl)acrylic acid] |  |  | 152 to 153 | −0.103 (0.009) | 100 | 38 | 37 | 44 | 46 | 54 | 34 | 90 | 29 | 94 |
